Data published in patent US12234221B2, “Pyridine carboxamide compounds for inhibiting NAV1.8” (Lieber Institute, Inc., priority 2018, dated 2025).
pIC50: −log10 of the molar value.

Target: T1, human Nav1.8 (hNav1.8) ion channel (Homo sapiens, UniProt Q9Y5Y9)
T1 construct: expressed in transfected cells; host or cells: HEK293
Assay: Nav1.8 channel inhibition, estimated IC50 (one or more of: fluorescence inhibition assay, PatchXpress, IonFlux HT automated patch clamp)
Assay type: cell-based
Conditions: HEK293 cells stably expressing hNav1.8; method used per compound not stated; read-out: Activity range (estimated IC50)
In short: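 HEK293 cells stably expressing hNav1.8 with β1/β2 subunits; IC50 from the fluorescence assay and/or automated whole-cell patch clamp (PatchXpress, IonFlux HT). Fluorescence: ANG-2 Na dye, 5 min compound preincubation (0.02–5 μM, 1% DMSO) with 30 μM ouabain, stimulation by 10 μM deltamethrin, peak signal fit logistically. PatchXpress: holding potential reset to Vhalf, inhibition normalized to control/washout currents.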

T1 sequence (Q9Y5Y9 whole entry): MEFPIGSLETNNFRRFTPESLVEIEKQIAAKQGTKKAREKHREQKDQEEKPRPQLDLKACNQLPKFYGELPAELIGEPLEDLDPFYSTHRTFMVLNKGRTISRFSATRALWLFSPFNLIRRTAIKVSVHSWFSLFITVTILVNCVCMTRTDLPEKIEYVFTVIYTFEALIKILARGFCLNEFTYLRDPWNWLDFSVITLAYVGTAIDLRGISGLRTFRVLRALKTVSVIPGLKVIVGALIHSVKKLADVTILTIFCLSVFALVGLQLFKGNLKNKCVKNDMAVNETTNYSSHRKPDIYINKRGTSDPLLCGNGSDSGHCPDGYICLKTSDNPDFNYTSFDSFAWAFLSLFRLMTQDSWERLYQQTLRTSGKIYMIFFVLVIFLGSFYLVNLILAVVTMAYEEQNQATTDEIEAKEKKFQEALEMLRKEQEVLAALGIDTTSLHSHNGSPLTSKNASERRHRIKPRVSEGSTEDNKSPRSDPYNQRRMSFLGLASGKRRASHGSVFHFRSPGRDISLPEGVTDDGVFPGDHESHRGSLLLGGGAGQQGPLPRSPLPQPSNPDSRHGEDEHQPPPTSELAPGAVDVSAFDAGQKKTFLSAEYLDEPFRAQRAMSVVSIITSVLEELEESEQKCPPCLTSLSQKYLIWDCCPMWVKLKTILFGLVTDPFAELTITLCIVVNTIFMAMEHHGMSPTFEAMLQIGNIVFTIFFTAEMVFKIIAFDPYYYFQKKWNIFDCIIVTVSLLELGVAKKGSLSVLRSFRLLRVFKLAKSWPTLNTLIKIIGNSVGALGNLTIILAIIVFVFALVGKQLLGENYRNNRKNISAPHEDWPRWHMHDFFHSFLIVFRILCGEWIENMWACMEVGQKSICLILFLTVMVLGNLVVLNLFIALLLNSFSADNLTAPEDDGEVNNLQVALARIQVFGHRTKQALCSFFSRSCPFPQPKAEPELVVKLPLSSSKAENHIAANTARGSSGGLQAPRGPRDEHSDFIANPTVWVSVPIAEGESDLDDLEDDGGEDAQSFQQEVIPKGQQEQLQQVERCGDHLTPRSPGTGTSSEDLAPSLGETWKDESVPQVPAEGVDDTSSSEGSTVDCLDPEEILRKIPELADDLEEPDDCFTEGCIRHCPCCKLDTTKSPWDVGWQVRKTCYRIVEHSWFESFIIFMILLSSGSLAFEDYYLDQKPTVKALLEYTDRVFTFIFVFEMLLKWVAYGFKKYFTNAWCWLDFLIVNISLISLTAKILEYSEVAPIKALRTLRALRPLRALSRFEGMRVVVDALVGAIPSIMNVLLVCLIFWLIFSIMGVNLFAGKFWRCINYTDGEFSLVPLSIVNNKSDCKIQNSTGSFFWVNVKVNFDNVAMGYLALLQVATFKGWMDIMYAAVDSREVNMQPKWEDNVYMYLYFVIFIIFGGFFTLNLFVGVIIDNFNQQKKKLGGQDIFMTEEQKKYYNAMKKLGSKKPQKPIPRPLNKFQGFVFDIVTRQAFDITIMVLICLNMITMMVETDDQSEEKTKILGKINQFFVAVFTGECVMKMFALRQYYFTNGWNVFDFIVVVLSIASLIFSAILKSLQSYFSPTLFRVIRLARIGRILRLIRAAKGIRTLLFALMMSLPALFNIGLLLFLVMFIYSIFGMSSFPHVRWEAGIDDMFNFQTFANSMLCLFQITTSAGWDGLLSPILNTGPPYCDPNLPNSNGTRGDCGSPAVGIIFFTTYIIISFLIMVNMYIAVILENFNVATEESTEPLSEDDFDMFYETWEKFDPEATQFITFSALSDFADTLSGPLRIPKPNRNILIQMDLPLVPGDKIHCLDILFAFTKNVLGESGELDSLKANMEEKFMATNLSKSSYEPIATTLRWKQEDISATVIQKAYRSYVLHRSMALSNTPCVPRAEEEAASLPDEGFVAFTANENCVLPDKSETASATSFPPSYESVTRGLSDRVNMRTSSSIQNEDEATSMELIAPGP

Row | Structure (SMILES) | pIC50
1 | O=C(Nc1ccnnc1)c1cnc(C(F)(F)F)cc1Oc1ccc(OC(F)F)cc1 [Example 97, 4-[4-(difluoromethoxy)phenoxy]-N-pyridazin-4-yl-6-(trifluoromethyl)pyridine-3-carboxamide] | < 6.00
2 | O=C(Nc1ccnnc1)c1cc(C(F)(F)F)cnc1Oc1ccc(OC(F)F)cc1 [Example 64, 2-[4-(difluoromethoxy)phenoxy]-N-pyridazin-4-yl-5-(trifluoromethyl)pyridine-3-carboxamide] | < 6.00
3 | CN=S(C)(=O)c1cccc(NC(=O)c2cnc(C(F)(F)F)cc2Oc2ccc(OC(F)(F)F)cc2)c1 (stereo not drawn) [Example 92, N-[3-(N,S-dimethylsulfonimidoyl)phenyl]-4-[4-(trifluoromethoxy)phenoxy]-6-(trifluoromethyl)pyridine-3-carboxamide] | > 6.30
4 | CS(=O)(=O)c1cccc(NC(=O)c2cc(C(F)(F)F)cnc2Oc2cc(F)c(F)c(F)c2)c1 [Example 55, N-(3-methylsulfonyl-phenyl)-5-(trifluoromethyl)-2-(3,4,5-trifluorophenoxy)pyridine-3-carboxamide] | 6.00 to 6.30
5 | COc1cc(F)ccc1Oc1nc(C)c(C#N)cc1C(=O)Nc1cccc(S(C)(=O)=O)c1 [Example 177, 5-cyano-2-(4-fluoro-2-methoxy-phenoxy)-6-methyl-N-(3-methylsulfonylphenyl)pyridine-3-carboxamide] | 6.00 to 6.30
6 | CS(=N)(=O)c1cccc(NC(=O)c2cnc(C(F)(F)F)cc2Oc2ccc(OC(F)(F)F)cc2)c1 (stereo not drawn) [Example 91, N-[3-(methylsulfonimidoyl)phenyl]-4-[4-(trifluoromethoxy)phenoxy]-6-(trifluoromethyl)pyridine-3-carboxamide] | > 6.30

Continued, values first:

Row | pIC50 | Structure (SMILES)
7 | > 6.30 | CS(=N)(=O)c1cccc(NC(=O)c2cc(C(F)(F)F)cnc2Oc2ccc(OC(F)(F)F)cc2)c1 (single isomer, unassigned) [Example 131, N-[3-(methylsulfonimidoyl)phenyl]-2-[4-(trifluoromethoxy)phenoxy]-5-(trifluoromethyl)pyridine-3-carboxamide]
8 | 6.00 to 6.30 | O=C(Nc1cnns1)c1cc(C(F)(F)F)cnc1Oc1ccc(OC(F)(F)F)cc1Cl [Example 166, 2-[2-chloro-4-(trifluoromethoxy)phenoxy]-N-(thiadiazol-5-yl)-5-(trifluoromethyl)pyridine-3-carboxamide]
9 | > 6.30 | CS(=O)(=O)c1ccc(F)c(NC(=O)c2cnc(C(F)(F)F)cc2Oc2ccc(OC(F)(F)F)cc2Cl)c1 [Example 77, 4-[2-chloro-4-(trifluoromethoxy)phenoxy]-N-(2-fluoro-5-methylsulfonyl-phenyl)-6-(trifluoromethyl)pyridine-3-carboxamide]
10 | < 6.00 | O=C(Nc1ccnnc1)c1cc(C(F)(F)F)cnc1Oc1ccc(F)cc1F [Example 176, 2-(2,4-difluorophenoxy)-N-pyridazin-4-yl-5-(trifluoromethyl)pyridine-3-carboxamide]
11 | < 6.00 | O=C(Nc1cccc(F)c1)c1cc(C(F)(F)F)cnc1Oc1ccc(OC(F)(F)F)cc1Cl [Example 163, 2-[2-chloro-4-(trifluoromethoxy)phenoxy]-N-(3-fluorophenyl)-5-(trifluoromethyl)pyridine-3-carboxamide]
12 | > 6.30 | O=C(Nc1ccc[n+]([O-])c1)c1cc(C(F)(F)F)cnc1Oc1ccc(OC(F)(F)F)cc1 [Example 132, N-(1-oxidopyridin-1-ium-3-yl)-2-[4-(trifluoromethoxy)phenoxy]-5-(trifluoromethyl)pyridine-3-carboxamide]
13 | > 6.30 | CS(=N)(=O)c1cccc(NC(=O)c2cc(C(F)(F)F)cnc2Oc2ccc(OC(F)(F)F)cc2)c1 (single isomer, unassigned) [Example 130, N-[3-(methylsulfonimidoyl)phenyl]-2-[4-(trifluoromethoxy)phenoxy]-5-(trifluoromethyl)pyridine-3-carboxamide]
14 | > 6.30 | COc1cc(F)ccc1Oc1ncc(C(F)(F)F)cc1C(=O)Nc1cccc(S(C)(=N)=O)c1 (stereo not drawn) [Example 14, 2-(4-fluoro-2-methoxy-phenoxy)-N-[3-(methylsulfonimidoyl)phenyl]-5-(trifluoromethyl)pyridine-3-carboxamide]
15 | > 6.30 | O=C(Nc1ccc[n+]([O-])c1)c1cnc(C(F)(F)F)cc1Oc1ccc(OC(F)(F)F)cc1Cl [Example 83, 4-[2-chloro-4-(trifluoromethoxy)phenoxy]-N-(1-oxidopyridin-1-ium-3-yl)-6-(trifluoromethyl)pyridine-3-carboxamide]

Target: T2, Nav 1.8 (Mus musculus, UniProt Q6QIY3)
T2 construct: host or cells: mouse, in vivo
T2 sequence (Q6QIY3 whole entry): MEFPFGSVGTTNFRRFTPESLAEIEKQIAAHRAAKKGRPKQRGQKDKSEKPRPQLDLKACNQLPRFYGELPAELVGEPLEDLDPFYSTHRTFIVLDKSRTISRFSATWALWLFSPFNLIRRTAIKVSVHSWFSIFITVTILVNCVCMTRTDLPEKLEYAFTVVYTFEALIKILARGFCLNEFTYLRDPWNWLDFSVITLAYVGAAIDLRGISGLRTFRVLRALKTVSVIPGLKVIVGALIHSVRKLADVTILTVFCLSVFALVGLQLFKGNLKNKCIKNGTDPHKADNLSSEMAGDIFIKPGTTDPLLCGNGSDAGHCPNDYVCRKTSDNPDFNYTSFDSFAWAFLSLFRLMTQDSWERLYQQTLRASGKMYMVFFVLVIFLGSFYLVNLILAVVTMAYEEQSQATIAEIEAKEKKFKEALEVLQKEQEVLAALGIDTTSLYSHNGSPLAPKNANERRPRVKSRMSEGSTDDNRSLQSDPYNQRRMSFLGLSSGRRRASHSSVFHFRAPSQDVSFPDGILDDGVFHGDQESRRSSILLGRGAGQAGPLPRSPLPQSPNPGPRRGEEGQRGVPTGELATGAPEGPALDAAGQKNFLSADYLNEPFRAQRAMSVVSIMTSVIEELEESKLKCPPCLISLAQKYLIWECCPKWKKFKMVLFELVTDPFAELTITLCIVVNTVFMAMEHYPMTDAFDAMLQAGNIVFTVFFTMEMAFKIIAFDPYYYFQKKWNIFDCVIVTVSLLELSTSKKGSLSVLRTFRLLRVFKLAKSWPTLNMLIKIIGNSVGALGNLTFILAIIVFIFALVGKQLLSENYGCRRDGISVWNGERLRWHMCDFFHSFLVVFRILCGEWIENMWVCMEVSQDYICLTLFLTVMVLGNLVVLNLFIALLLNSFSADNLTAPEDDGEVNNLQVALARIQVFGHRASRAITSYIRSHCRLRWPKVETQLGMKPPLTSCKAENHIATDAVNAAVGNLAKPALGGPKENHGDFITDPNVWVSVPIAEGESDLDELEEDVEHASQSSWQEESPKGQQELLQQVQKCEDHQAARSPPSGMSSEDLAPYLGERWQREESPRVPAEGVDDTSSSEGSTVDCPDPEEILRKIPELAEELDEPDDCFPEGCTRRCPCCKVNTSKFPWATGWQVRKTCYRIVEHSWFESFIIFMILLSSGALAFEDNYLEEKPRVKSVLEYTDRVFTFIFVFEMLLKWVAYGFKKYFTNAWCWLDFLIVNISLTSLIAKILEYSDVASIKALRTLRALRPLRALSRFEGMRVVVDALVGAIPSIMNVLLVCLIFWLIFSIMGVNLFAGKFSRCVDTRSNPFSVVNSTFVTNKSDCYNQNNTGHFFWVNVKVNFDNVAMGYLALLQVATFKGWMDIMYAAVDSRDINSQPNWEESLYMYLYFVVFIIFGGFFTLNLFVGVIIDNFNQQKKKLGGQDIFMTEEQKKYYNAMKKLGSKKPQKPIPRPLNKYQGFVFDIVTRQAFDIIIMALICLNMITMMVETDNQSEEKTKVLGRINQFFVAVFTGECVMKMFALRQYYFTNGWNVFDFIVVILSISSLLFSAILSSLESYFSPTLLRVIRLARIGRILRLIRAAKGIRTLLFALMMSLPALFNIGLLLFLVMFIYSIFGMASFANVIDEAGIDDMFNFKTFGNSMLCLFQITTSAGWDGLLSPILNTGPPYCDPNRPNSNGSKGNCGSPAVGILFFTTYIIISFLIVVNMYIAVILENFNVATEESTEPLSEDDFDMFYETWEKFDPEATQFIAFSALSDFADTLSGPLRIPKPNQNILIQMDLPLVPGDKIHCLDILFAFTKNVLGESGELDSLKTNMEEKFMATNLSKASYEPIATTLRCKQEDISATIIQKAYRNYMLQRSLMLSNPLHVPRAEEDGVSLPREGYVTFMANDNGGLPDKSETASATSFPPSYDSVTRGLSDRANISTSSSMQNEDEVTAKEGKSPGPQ
Assay: not given
Conditions: mouse model of MS; cited from earlier work

Row | Structure (SMILES) | effect on cerebellar deficits
16 | CNC(=O)c1ccc(-c2cc(Cl)cc(Cl)c2Cl)c(N)n1 [PF 01247324, N-methyl-6-amino-5-(2,3,5-trichlorophenyl)pyridine-2-carboxamide] | reverses cerebellar deficits

System: Nav 1.8
Assay: not given
Conditions: PTHS models (ex vivo cell model, rodent models); cited from earlier work

Row | Structure (SMILES) | effect on excitability phenotypes
17 | COc1ccc(Cl)c(-c2ccc(NC(=O)c3ccnn3C)nc2N)c1 [PF 4531083, N-[6-amino-5-(2-chloro-5-methoxyphenyl)pyridin-2-yl]-1-methyl-1H-pyrazole-5-carboxamide] | can rapidly reverse some of the excitability phenotypes
18 | COc1cc(NC(=O)c2ccc(-c3ccc(Cl)cc3)o2)cc(OC)c1 [Example A-803467, 5-4(-chlorophenyl)-N-(3,5-dimethoxyphenyl)furan-2-carboxamide] | can rapidly reverse some of the excitability phenotypes
